Where “and” joins values, the source holds several entries; their conditions need not be identical. Equal entries are not always repeated.
Tests used:
[1] = test system: mitochondria isolated from rat brain; assay: EPR analysis of ROS production upon mitochondria respiration (Mito-TEMPO); type: biochemical; conditions: succinate without rotenone, 37 °C, 8 min preincubation
Description: Investigation of the redox status in mitochondria was performed using the Mito-TEMPO paramagnetic spin probe, which is a mitochondria-penetrating nitroxide radical that allows evaluation of the level of ROS (mainly superoxides) produced during respiration. The same protocol as described in the previous subsection was followed with the addition of Mito-TEMPO (0.1 mM) during the preincubation with BrP, NF, or NF-Br. In this case succinate was used as a respiratory substrate in the absence of rotenone in order to allow the formation of ROS via the electron reverse from complex II to complex I. At predetermined time intervals, 20 μL of each sample was loaded into glass capillaries and flame-sealed. To guarantee thermal stability, the sealed capillaries were subsequently placed inside a standard 4 mm quartz EPR-sample tube that had been lightly lubricated with silicone oil. As described in a previous subsection, a 9 GHz Bruker Elexsys E500 spectrometer was used to record the EPR spectra. During acquisition, the sample temperature was maintained at 37 °C by directing thermostated nitrogen gas through a quartz dewar. Mito-TEMPO EPR signals were analyzed by double integration using the Bruker software package.

U-87 MG cells (2D) [2] = assay: 2D U-87 cell viability assay (PrestoBlue); type: cell-based, human
Description: Cells were seeded in 48-well plates at approximately 3 × 10^4 cells per well in DMEM culture medium supplemented with 10% FBS. U-87 MG cell lines from human brain were initially cultured in 25 cm^2 flasks, using DMEM supplemented with FBS 10%, P/S 2%, and L/GLUT 2 mM, in a humidified incubator (37 °C/5% CO2). After 24 h, once cells adhered, they were treated in parallel with NF-BrP (BrP, 5 μM), NF-BrP-TMZ (BrP and TMZ, 5 μM), and BrP at concentrations of 30, 50, 100, and 150 μM, for 24, 48, and 72 h. Untreated cells served as the controls. All experiments were performed under standard cell culture conditions (95% relative humidity, 5% CO2, 37 °C). At the end of each incubation time, cell viability was assessed using the PrestoBlue assay (ThermoFisher Scientific), according to the manufacturer’s protocol. Cells were incubated with the reagent for 1 h, and absorbance was obtained at 570 nm with 600 nm as the reference wavelength with a BioTek Synergy HT microplate reader. Results are expressed as the percentage of viable cells relative to the untreated controls.

[3] = test system: mitochondria isolated from rat brain; assay: Mitochondrial respiration (Clark-type electrode); type: biochemical; conditions: 5 μM, 8 min preincubation, 37 °C, ADP 300 μM
Description: Male Wistar rats (275–300 g) were obtained from Envigo RMS Srl (Udine, Italy). Animals were housed in a temperature-controlled environment (22 °C) under a 12:12 h light–dark cycle, with food and water available ad libitum. All procedures were conducted in strict accordance with European guidelines for the care and use of laboratory animals. Every attempt was made to reduce the suffering and discomfort experienced by the animals. Experimental protocols were approved by the Committee on the Ethics of Animal Experiments of the University of Naples Federico II (Italy) and the Italian Minister of Health (protocol number 776/2021-Pr). Rats were anesthetized by ip injection of tiopental (40 mg/100 body weight) and euthanized by decapitation. Brains were immediately excised, weighed, and processed for mitochondrial isolation, following the method described by Sumbalova et al. Briefly, brain tissues were immersed in ice-cold isolation buffer (330 mM sucrose, 10 mM Tris-HCl, 1 mM EDTA, and 2.5 g/L fatty acid-free BSA, pH 7.4) and homogenized using a Potter-Elvehjem homogenizer. […] Mitochondrial respiration rate was measured polarographically using a Clark-type electrode (Clark-type electrode, Oxygraph system, Hansatech Instruments Ltd., UK). […]

U-87 MG cells (2D) [4] = conditions: highest tested concentration 250 μM, 72 h; ref previous work; cited from earlier work
Description: Combining drugs with different mechanisms of action targeting distinct cellular pathways can help overcome resistance and produce a synergistic effect, thereby enhancing the overall anticancer efficacy. The combined cytotoxic effect of the nanofiber NF-TMZ-BrP, cofunctionalized with BrP and TMZ (both at 5 μM), was evaluated in 2D and 3D-U87 cells at 24, 48, and 72 h. […] After 72 h, the cytotoxic effect became more pronounced, with appro ...

O=C(O)C(=O)CBr [BrP, 3-bromopyruvic acid]
effect on mitochondrial ROS production (slope of mito-TEMPO decay) [1]: reduces the slope in a dose-dependent manner | reduction of U-87 cell viability by free BrP at 150 μM (U-87 MG cells (2D) [2]; free drug 150 μM, prolonged exposure): no more than 20% | concentrations at which a decrease in U-87 cell viability is observed (U-87 MG cells (2D) [2]; free drug, 24, 48 and 72 h): 50 to 150 µM and > 50 µM | inhibition of ADP-stimulated respiration, pyruvate + malate [3]: about 50% | inhibition of ADP-stimulated respiration, succinate + rotenone [3]: about 50%

Cn1nnc2c(C(N)=O)ncn2c1=O [TMZ, temozolomide]
reduction in cell viability by free TMZ (U-87 MG cells (2D) [4]): 40%

Source: article PMC12598698, “Synergistic Cancer Metabolic Therapy via Co-Delivery of 3‑Bromopyruvate and Temozolomide with a Supramolecular Shuttle” (ACS Applied Materials & Interfaces, 2025)
